Measurements published in patent US6878722B2, “Substituted cycloalkyl P1′ hepatitis C virus inhibitors” (Bristol-Myers Squibb Company, priority 2002, dated 2005).
Read-outs that look alike come from different tables or passages of the source.

Legend:
[1] = test system: HCV replicon in Huh7 cells; assay: HCV replicon cell-based assay (FRET); settings: Hepatitis C virus
Text: An HCV replicon whole cell system was established as described by Lohmann V, Korner F, Koch J, Herian U, Theilmann L, Bartenschlager R., Science 285(5424):110-3 (1999). This system enabled us to evaluate the effects of our HCV Protease compounds on HCV RNA replication. Briefly, using the HCV strain 1B sequence described in the Lohmann paper (Assession number: AJ238799), an HCV cDNA was generated encoding the 5′ internal ribosome entry site (IRES), the neomycin resistance gene, the EMCV (encephalomyocarditis viurs)-IRES and the HCV nonstructural proteins, NS3-NS5B, and 3′ non-translated region (NTR). In vitro transcripts of the cDNA were transfected into the human hepatoma cell line, Huh7. […] Resulting cell lines were characterized for positive and negative strand RNA production and protein production over time.
Huh7 cells, constitutively expressing the HCV replicon, were grown in Dulbecco's Modified Eagle Media (DMEM) containing 10% Fetal calf serum (FCS) and 1 mg/ml G418 (Gibco-BRL). Cells were seeded the night before (1.5×10^4 cells/well) in 96-well tissue-culture sterile plates. Compound and no compound controls were prepared in DMEM containing 4% FCS, 1:100 Penicillin/Streptomysin, 1:100 L-glutamine and 5% DMSO in the dilution plate (0.5% DMSO final concentration in the assay). Compound/DMSO mixes were added to the cells and incubated for 4 days at 37° C. After 4 days, plates were rinsed thoroughly with Phosphate-Buffered Saline (PBS) (3 times 150 μl). The cells were lysed with 25 μl of a lysis assay reagent containing the FRET peptide (RET S1, as described for the in vitro enzyme assay). The lysis assay reagent was made from 5× cell Luciferase cell culture lysis reagent(Promega #E153A) diluted to 1× with distilled water, NaCl added to 150 mM final, the FRET peptide diluted to 10 μM final from a 2 mM stock in 100% DMSO. The plate was then placed into the Cytofluor 4000 instrument which had been set to 340 nm excitation/490 emission, automatic mode for 21 cycles and the plate read in a kinetic mode. EC50 determinations were carried out as described for the IC50 determinations.

[2] = target: T1, HCV NS3/4A protease complex (BMS strain, genotype 1a) (Hepatitis C virus genotype 1a, UniProt P27958, C1454S); assay: Recombinant HCV NS3/4A protease complex FRET peptide assay, BMS strain; type: biochemical; settings: IC50 range, NS3/4A BMS Strain
T1 construct: DNA encoding the recombinant HCV NS3/4A protease complex (amino acids 1027 to 1711) for these strains; inferred from the pET21b vector and Ni-NTA purification; made in house; host or cells: Escherichia coli BL21 (DE3), pET21b
T1 sequence (P27958 1658-1714, looked up, stated change not applied): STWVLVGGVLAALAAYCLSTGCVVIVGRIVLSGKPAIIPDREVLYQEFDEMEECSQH
T1 sequence (P27958 1027-1657, looked up, stated change not applied): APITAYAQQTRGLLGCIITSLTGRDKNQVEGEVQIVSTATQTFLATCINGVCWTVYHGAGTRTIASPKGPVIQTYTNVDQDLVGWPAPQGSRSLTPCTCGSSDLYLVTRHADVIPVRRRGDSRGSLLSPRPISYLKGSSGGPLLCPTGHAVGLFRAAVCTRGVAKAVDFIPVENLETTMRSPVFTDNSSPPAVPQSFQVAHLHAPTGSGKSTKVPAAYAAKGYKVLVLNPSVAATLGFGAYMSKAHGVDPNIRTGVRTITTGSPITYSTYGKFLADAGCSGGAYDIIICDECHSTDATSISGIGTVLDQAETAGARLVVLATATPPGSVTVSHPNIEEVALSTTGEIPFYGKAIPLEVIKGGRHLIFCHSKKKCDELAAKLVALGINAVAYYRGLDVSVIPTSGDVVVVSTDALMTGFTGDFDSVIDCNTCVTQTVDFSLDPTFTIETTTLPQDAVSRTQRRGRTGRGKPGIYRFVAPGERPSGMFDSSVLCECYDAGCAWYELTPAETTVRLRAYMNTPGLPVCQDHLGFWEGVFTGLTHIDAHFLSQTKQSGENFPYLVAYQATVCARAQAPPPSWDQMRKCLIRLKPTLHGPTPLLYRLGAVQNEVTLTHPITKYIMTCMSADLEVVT
Text: The purpose of this in vitro assay was to measure the inhibition of HCV NS3 protease complexes, derived from the BMS, H77C or J416S strains, as described below, by compounds of the present invention.
Serum from an HCV-infected patient was obtained from Dr. T. Wright, San Francisco Hospital. An engineered full-length cDNA (compliment deoxyribonucleic acid) template of the HCV genome (BMS strain) was constructed from DNA fragments obtained by reverse transcription-PCR (RT-PCR) of serum RNA (ribonucleic acid) and using primers selected on the basis of homology between other genotype 1a strains. […] The infectious clones, H77C (1a genotype) and J4L6S (1b genotype) were obtained from R. Purcell (NIH) and the sequences are published in Genbank (AAB67036, see Yanagi,M., Purcell,R. H., Emerson,S. U. and Bukh,J. Proc. Natl. Acad. Sci. U.S.A. 94(16),8738-8743 (1997); AF054247, see Yanagi,M., St Claire,M., Shapiro,M., Emerson,S. U., Purcell,R. H. and Bukh,J, Virology 244 (1), 161-172. (1998)).
The BMS, H77C and J4L6S strains were used for production of recombinant NS3/4A protease complexes. DNA encoding the recombinant HCV NS3/4A protease complex (amino acids 1027 to 1711) for these strains were manipulated as described by P. Gallinari et al. (see Gallinari P, Paolini C, Brennan D, Nardi C, Steinkuhler C, De Francesco R. Biochemistry. 38(17):5620-32, (1999)). Briefly, a three-lysine solubilizing tail was added at the 3′-end of the NS4A coding region. The cysteine in the P1 position of the NS4A-NS4B cleavage site (amino acid 1711) was changed to a glycine to avoid the proteolytic cleavage of the lysine tag. Furthermore, a cysteine to serine mutation was introduced by PCR at amino acid position 1454 to prevent the autolytic cleavage in the NS3 helicase domain. The variant DNA fragment was cloned in the pET21b bacterial expression vector (Novagen) and the NS3/4A complex was expressed in Escherichia. coli strain BL21 (DE3) (Invitrogen) following the protocol described by P. Gallinari et al. (see Gallinari P, Brennan D, Nardi C, Brunetti M, Tomei L, Steinkuhler C, De Francesco R., J. Virol. 72(8):6758-69 (1998)) with modifications. Briefly, NS3/4A expression was induced with 0.5 mM Isopropyl β-D-1-thiogalactopyranoside (IPTG) for 22 hr at 20° C. […] The cells were resuspended in lysis buffer (10 mL/g) consisting of 25 mM N-(2-Hydroxyethyl)Piperazine-N′-(2-Ethane Sulfonic acid) (HEPES), pH 7.5, 20% glycerol, 500 mM Sodium Chloride (NaCl), 0.5% Triton-X100, 1 ug/ml lysozyme, 5 mM Magnesium Chloride (MgCl2), 1 ug/ml DnaseI, 5 mM β-Mercaptoethanol (βME), Protease inhibitor—Ethylenediamine Tetraacetic acid (EDTA) free (Roche), homogenized and incubated for 20 mins at 4° C. The homogenate was sonicated and clarified by ultra-centrifugation at 235000 g for 1 hr at 4° C. Imidazole was added to the supernatant to a final concentration of 15 mM and the pH adjusted to 8.0. The crude protein extract was loaded on a Nickel-Nitrilotriacetic acid (Ni-NTA) column pre-equilibrated with buffer B (25 mM HEPES, pH 8.0, 20% glycerol, 500 mM NaCl, 0.5% Triton-X100, 15 mM imidazole, 5 mM βME). The sample was loaded at a flow rate of 1 mL/min. The column was washed with 15 column volumes of buffer C (same as buffer B except with 0.2% Triton-X100). The protein was eluted with 5 column volumes of buffer D (same as buffer C except with 200 mM Imidazole).
NS3/4A protease complex-containing fractions were pooled and loaded on a desalting column Superdex-S200 pre-equilibrated with buffer D (25 mM HEPES, pH7.5, 20% glycerol, 300 mM NaCl, 0.2% Triton-X100, 10 mM βME).

[3] = Huh-7, HCV replicon, read-out: EC50 range

SMILES | EC50 [1, 3] | IC50 [2] | EC50 ([1]; Huh-7, read-out: EC50 range)
C=CCC1(S(=O)(=O)NC(=O)C2(NC(=O)[C@@H]3C[C@@H](Oc4cc(-c5ccccc5)nc5cc(OC)ccc45)CN3C(=O)[C@@H](NC(=O)OC(C)(C)C)C(C)(C)C)CC2)CC1 [Compound 75, {1-[2-[1-(1-Allyl-cyclopropanesulfonylaminocarbonyl)-cyclopropylcarbamoyl]-4-(7-methoxy-2-phenyl-quinolin-4-yloxy)-pyrrolidine-1-carbonyl]-2,2-dimethyl-propyl}-carbamic acid tert-butyl ester] | 500 to 5000 nM | < 50 nM | 
C=C[C@@H]1C[C@]1(NC(=O)C1C[C@@H](Oc2cc(-c3ccccc3)nc3cc(OC)ccc23)CN1C(=O)[C@@H](NC(=O)[C@@H](OC)c1ccccc1)C(C)(C)C)C(=O)NS(=O)(=O)C1(CC2CC2)CC1 (stereo partly shown) [Compound 119] | 50 to 500 nM | < 50 nM | 
C=C[C@@H]1C[C@]1(NC(=O)[C@@H]1C[C@@H](Oc2cc(-c3ccccc3)nc3cc(OC)ccc23)CN1C(=O)[C@@H](NC(=O)CCOC)C(C)(C)C)C(=O)NS(=O)(=O)C1(Cc2ccccc2)CC1 [Compound 112] | 50 to 500 nM | 50 to 500 nM | 
COc1ccc2c(O[C@@H]3C[C@@H](C(=O)NC4(C(=O)NS(=O)(=O)C5(Cc6ccccc6)CC5)CC4)N(C(=O)[C@@H](NC(=O)OC(C)(C)C)C(C)(C)C)C3)cc(-c3ccccc3)nc2c1 [Compound 74, {1-[2-[1-(1-Benzyl-cyclopropanesulfonylaminocarbonyl)-cyclopropylcarbamoyl]-4-(7-methoxy-2-phenyl-quinolin-4-yloxy)-pyrrolidine-1-carbonyl]-2,2-dimethyl-propyl}-carbamic acid tert-butyl ester] | 5000 to 50000 nM | 500 to 5000 nM | 
C=C[C@@H]1C[C@]1(NC(=O)[C@@H]1C[C@@H](Oc2cc(-c3ccccc3)nc3cc(OC)ccc23)CN1C(=O)[C@@H](NC(=O)OCC(C)(C)C)C(C)(C)C)C(=O)NS(=O)(=O)C1(Cc2ccccc2)CC1 [Compound 105] | 50 to 500 nM | < 50 nM | 
C=C[C@@H]1C[C@]1(NC(=O)[C@@H]1C[C@@H](Oc2cc(-c3ccccc3)nc3cc(OC)ccc23)CN1C(=O)[C@@H](NC(=O)OC(C)(C)C)C(C)(C)C)C(=O)NS(=O)(=O)C1(Cc2ccc(OC)cc2)CC1 [Compound 42, {1-[2-{1-[1-(4-Methoxy-benzyl)-cyclopropanesulfonylaminocarbonyl]-2-vinyl-cyclopropylcarbamoyl}-4-(7-methoxy-2-phenyl-quinolin-4-yloxy)-pyrrolidine-1-carbonyl]-2,2-dimethyl-propyl}-carbamic acid tert-butyl ester] | 50 to 500 nM | 50 to 500 nM | 
C=CC1C[C@]1(NC(=O)[C@@H]1C[C@@H](Oc2cc(-c3ccccc3)nc3cc(OC)ccc23)CN1C(=O)[C@@H](NC(=O)OC(C)(C)C)C(C)(C)C)C(=O)NS(=O)(=O)C1(C(=O)Nc2ccccc2)CC1 (stereo in doubt) [Compound 6, (1-{4-(7-Methoxy-2-phenyl-quinolin-4-yloxy)-2-[1-(1-phenylcarbamoyl-cyclopropane-sulfonylaminocarbonyl)-2-vinylcyclopropylcarbamoyl]-pyrrolidine-1-carbonyl}-2,2-dimethyl-propyl)carbamic acid tert-butyl ester] | 50 to 500 nM | < 50 nM | 
C=C[C@@H]1C[C@]1(NC(=O)[C@@H]1C[C@@H](Oc2cc(-c3ccccc3)nc3cc(OC)ccc23)CN1C(=O)[C@@H](NC(=O)O[C@H]1CCOC1)C(C)(C)C)C(=O)NS(=O)(=O)C1(Cc2ccccc2)CC1 [Compound 57, {1-[2-[1-(1-Benzyl-cyclopropanesulfonylaminocarbonyl)-2-vinyl-cyclopropylcarbamoyl]-4-(7-methoxy-2-phenyl-quinolin-4-yloxy)-pyrrolidine-1-carbonyl]-2,2-dimethyl-propyl}-carbamic acid tetrahydro-furan-3-yl ester] | 50 to 500 nM | < 50 nM | 
C=CC1C[C@]1(NC(=O)[C@@H]1C[C@@H](Oc2cc(-c3ccccc3)nc3cc(OC)ccc23)CN1C(=O)[C@@H](NC(=O)OC1CCCC1)C(C)(C)C)C(=O)NS(=O)(=O)C1(C)CC1 (stereo in doubt) [Compound 12, (1-{4-(7-Methoxy-2-phenyl-quinolin-4-yloxy)-2-[1-(1-methylcyclopropanesulfonyl-aminocarbonyl)-2-vinyl-cyclopropylcarbamoyl]-pyrrolidine-1-carbonyl}-2,2-dimethylpropyl)carbamic acid cyclopentyl ester] | < 50 nM | < 50 nM | 
C=C[C@@H]1C[C@]1(NC(=O)[C@@H]1C[C@@H](Oc2cc(-c3ccccc3)nc3cc(OC)ccc23)CN1C(=O)[C@@H](NC(=O)OC(C)(C)C)C(C)(C)C)C(=O)NS(=O)(=O)C1([Si](C)(C)C)CC1 [Compound 27] | < 50 nM | < 50 nM | 
C=C[C@@H]1C[C@]1(NC(=O)[C@@H]1C[C@@H](Oc2cc(C3CC3)nc3cc(OC)ccc23)CN1C(=O)[C@@H](NC(=O)OC(C)(C)C)C(C)(C)C)C(=O)NS(=O)(=O)C1(Cc2ccccc2)CC1 [Compound 68, BOCNH—P3(L-t-BuGly)-P2[(4R)-(2-cyclopropyl-7-methoxyquinoline-4-oxo)-S-proline]-P1(1R,2S Vinyl Acca)-CONHSO2(1-benzylclopropan-1-yl)] |  | < 50 nM | 50 to 500 nM
